Values of other authors, collected in patent publication US8563018B2, “Foamable pesticide compositions” (priority 2009, dated 2013).

Assays:
[1] = system: termites; details: in vivo
[2] = system: ants; details: in vivo

Compound: N#Cc1nn(-c2c(Cl)cc(C(F)(F)F)cc2Cl)c(N)c1[S+]([O-])C(F)(F)F (racemic) [Fipronil, (±)-5-amino-1-(2,6-dichloro-α,α,α-trifluoro-p-tolyl)-4-trifluoromethylsulfinylpyrazole-3-carbonitrile]
- dose toxic to termites [1]: 2 nanograms per termite
- dose toxic to ants [2]: about 1 nanogram per ant
